Reference: the NIST ThermoML archive (doi:10.1021/je7000683)
± gives the expanded uncertainty stated by the source.

How the values were obtained:
[1] = activity coefficient (dimensionless); of the first substance listed, at infinite dilution; xn = mol fraction of the nth substance listed; conditions: Liquid, Chromatography, x1 = 0
[2] = for vapor or sublimation pressure: Liquid, Calculated from knudsen effusion weight loss
[3] = molar heat capacity at constant pressure; conditions: 101.33 kPa, Small (less than 1 g) adiabatic calorimetry
[4] = Molar enthalpy of transition or fusion; conditions: Crystal; Adiabatic calorimetry

O=C1CCCCCN1 [1-aza-2-cycloheptanone] + CCCCCC[n+]1ccn(C)c1.O=S(=O)([N-]S(=O)(=O)C(F)(F)F)C(F)(F)F
Conditions | activity coefficient
[1], 427.5 K | 0.49 ± 0.04

CCCCCC[n+]1ccn(C)c1.O=S(=O)([N-]S(=O)(=O)C(F)(F)F)C(F)(F)F
Conditions | Normal melting temperature [°C]
[2], Crystal, visual observation | -1 ± 0.4

O=C1CCCCCN1 [1-aza-2-cycloheptanone]
Conditions | Triple point temperature [K] | molar heat capacity at constant pressure [J/K/mol]
[2], Crystal, Adiabatic calorimetry | 342.22 ± 0.04 | –
[3], 316 K, Crystal | – | 168 ± 1.5
[3], 319 K, Crystal | – | 169.4 ± 1.5
[3], 322 K, Crystal | – | 171.1 ± 1.5
[3], 323 K, Liquid | – | 232.3 ± 2
[3], 325 K, Crystal | – | 173 ± 1.5
[3], 326 K, Liquid | – | 233.8 ± 2
[3], 328 K, Crystal | – | 175.1 ± 1.5
[3], 329 K, Liquid | – | 235.3 ± 2
[3], 331 K, Crystal | – | 177.5 ± 1.6
[3], 332 K, Liquid | – | 236.7 ± 2.1
[3], 334 K, Crystal | – | 180.1 ± 1.6
[3], 335 K, Crystal | – | 181 ± 1.6
[3], 335 K, Liquid | – | 238.2 ± 2.1
[3], 338 K, Liquid | – | 239.7 ± 2.1
[3], 341 K, Liquid | – | 241.2 ± 2.1
[3], 344 K, Liquid | – | 242.7 ± 2.1
[3], 347 K, Liquid | – | 244.2 ± 2.1
[3], 350 K, Liquid | – | 245.7 ± 2.1
[3], 353 K, Liquid | – | 247.1 ± 2.1
[3], 356 K, Liquid | – | 248.6 ± 2.2
[3], 359 K, Liquid | – | 250.1 ± 2.2
[3], 362 K, Liquid | – | 251.6 ± 2.2
[3], 365 K, Liquid | – | 253.1 ± 2.2
[3], 368 K, Liquid | – | 254.6 ± 2.2

Conditions | Molar enthalpy of transition or fusion [kcal/mol]
[4] | 3.862 ± 0.00956

[2]
Conditions | vapor or sublimation pressure [kPa]
315.3 K | 0.00286 ± 0.00035
320.3 K | 0.00442 ± 0.00058
331.9 K | 0.01144 ± 0.0018

ON=C1CCCCC1 [cyclohexanone oxime] + CCCCCC[n+]1ccn(C)c1.O=S(=O)([N-]S(=O)(=O)C(F)(F)F)C(F)(F)F
[1]
Conditions | activity coefficient
375.4 K | 2.41 ± 0.16
386 K | 2.22 ± 0.15
396.5 K | 2.03 ± 0.14
407 K | 1.84 ± 0.12
417.1 K | 1.67 ± 0.11
417.6 K | 1.61 ± 0.11
427.5 K | 1.51 ± 0.1
438 K | 1.28 ± 0.08
